Test results: PubChem BioAssay (NCI)
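All cell lines were grown in 96-well plates and treated with compound for 48 hours. Abbreviation: GI50, concentration required for 50% inhibition of growth. The concentration for full growth arrest is given as TGI.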 Where a SMILES comes first, the peptide text is derived from it. [ ]: non-standard residue; d: D form. The star is where a group is joined. X28 = COC1=CC(=O)N(C(=O)[C@@H](O*)C(C)C)[C@H]1Cc1ccccc1; Bn2Val = CC(C)[C@@H](C(=O)*)N(Cc1ccccc1)Cc1ccccc1; NMeV = CN[C@H](C(=O)O)C(C)C; dNMeA = CN[C@H](C)C(=O)O

What was measured:
Test in all cases: DTP human tumour cell line panel, 48 h
HCC-2998 colon = system: HCC-2998 colon
SK-MEL-28 melanoma = system: SK-MEL-28 melanoma
UACC-62 melanoma = system: UACC-62 melanoma
MDA-N = system: MDA-N
A549 NSCLC = system: A549 NSCLC
NCI-H460 lung = system: NCI-H460 lung
BT-549 breast = system: BT-549 breast
COLO 205 colon = system: COLO 205 colon
HL-60(TB) leukemia = system: HL-60(TB) leukemia

COC1=CC(=O)N(C(=O)[C@@H](OC(=O)[C@@H](C)N(C)C(=O)[C@@H]2CCCN2C(=O)[C@H](C(C)C)N(C)C(=O)[C@@H](NC(=O)[C@H](C(C)C)N(Cc2ccccc2)Cc2ccccc2)C(C)C)C(C)C)[C@H]1Cc1ccccc1 (Bn2Val-V[NMeV]P[dNMeA]-X28)
TGI (HCC-2998 colon): > 100 µM | TGI (SK-MEL-28 melanoma): > 100 µM | TGI (UACC-62 melanoma): > 100 µM | TGI (MDA-N): > 100 µM | TGI (A549 NSCLC): > 100 µM | TGI (NCI-H460 lung): > 100 µM | TGI (BT-549 breast): > 100 µM | TGI (COLO 205 colon): > 100 µM

Cn1c(=O)c2c(nc3n2CCC(=O)N3CCCCl)n(C)c1=O
TGI (HL-60(TB) leukemia): > 100 µM | TGI (HCC-2998 colon): > 100 µM | TGI (SK-MEL-28 melanoma): > 100 µM | TGI (UACC-62 melanoma): > 100 µM | TGI (MDA-N): > 100 µM | TGI (A549 NSCLC): > 100 µM | TGI (NCI-H460 lung): > 100 µM | TGI (BT-549 breast): > 100 µM | TGI (COLO 205 colon): > 100 µM

c1ccc(C(c2cccc3c2ccc2ccccc23)C(c2ccccc2)c2cccc3c2ccc2ccccc23)cc1 (centres undefined)
TGI (HL-60(TB) leukemia): > 100 µM | TGI (HCC-2998 colon): > 100 µM | TGI (SK-MEL-28 melanoma): > 100 µM | TGI (UACC-62 melanoma): > 100 µM | TGI (MDA-N): > 100 µM | TGI (A549 NSCLC): > 100 µM | TGI (NCI-H460 lung): > 100 µM | TGI (BT-549 breast): > 100 µM | TGI (COLO 205 colon): > 100 µM

C=CCNc1nc(O)c(/C=C2\C=Nc3ncccc32)s1
GI50 (HL-60(TB) leukemia): 2.1 µM | TGI (HL-60(TB) leukemia): 5.27 µM | GI50 (HCC-2998 colon): 3.4 µM | TGI (HCC-2998 colon): 58.5 µM | GI50 (SK-MEL-28 melanoma): 2.52 µM | TGI (SK-MEL-28 melanoma): 9.14 µM | GI50 (UACC-62 melanoma): 1.69 µM | TGI (UACC-62 melanoma): 4.22 µM | GI50 (A549 NSCLC): 7.08 µM | TGI (A549 NSCLC): 19.4 µM | GI50 (NCI-H460 lung): 2.74 µM | TGI (NCI-H460 lung): 9.96 µM

c1ccc2[nH]c3c(N=NC4=NCCN4)c4ccccc4c-3nc2c1
TGI (HL-60(TB) leukemia): > 100 µM | TGI (HCC-2998 colon): 14.9 µM | TGI (SK-MEL-28 melanoma): 27.2 µM | TGI (UACC-62 melanoma): 21.1 µM | TGI (MDA-N): 20.7 µM | TGI (A549 NSCLC): 16.8 µM | TGI (NCI-H460 lung): 7.81 µM | TGI (BT-549 breast): 41.9 µM

Cc1ccc(/C(O)=C/c2nc3cccnc3[nH]c2=O)cc1
TGI (HL-60(TB) leukemia): > 100 µM | TGI (HCC-2998 colon): > 100 µM | TGI (SK-MEL-28 melanoma): > 100 µM | TGI (UACC-62 melanoma): > 100 µM | TGI (MDA-N): > 100 µM | TGI (A549 NSCLC): > 100 µM | TGI (NCI-H460 lung): > 100 µM | TGI (BT-549 breast): > 100 µM | TGI (COLO 205 colon): > 100 µM

O=C(CNc1nccs1)Nn1cnc2ccc(S(=O)(=O)Nc3nccs3)cc2c1=O
TGI (HL-60(TB) leukemia): > 100 µM | TGI (HCC-2998 colon): > 100 µM | TGI (SK-MEL-28 melanoma): > 100 µM | TGI (UACC-62 melanoma): > 100 µM | TGI (MDA-N): > 100 µM | TGI (A549 NSCLC): > 100 µM | TGI (NCI-H460 lung): > 100 µM | TGI (BT-549 breast): > 100 µM | TGI (COLO 205 colon): > 100 µM

Cn1cc(-c2nc(-c3c[nH]c4ccncc34)cs2)c2ccccc21
GI50 (SK-MEL-28 melanoma): 1.71 µM | TGI (SK-MEL-28 melanoma): 3.14 µM | GI50 (UACC-62 melanoma): 1.69 µM | TGI (UACC-62 melanoma): 3.11 µM | GI50 (A549 NSCLC): 1.83 µM | TGI (A549 NSCLC): 3.46 µM | GI50 (BT-549 breast): 9 µM | TGI (BT-549 breast): 35.5 µM

Cc1ccc2n(c1)cc(-c1ccc(/C=N/NC(=N)N/N=C/c3ccc(-c4cn5cc(C)ccc5[n+]4C)cc3)cc1)[n+]2C
TGI (HL-60(TB) leukemia): > 100 µM | TGI (HCC-2998 colon): > 100 µM | TGI (SK-MEL-28 melanoma): 33.6 µM | TGI (MDA-N): > 100 µM | TGI (A549 NSCLC): > 100 µM | TGI (NCI-H460 lung): > 100 µM | TGI (COLO 205 colon): > 100 µM

COc1cc(S(=O)(=O)Nc2ccc(-c3csc(N4C(=O)C(Cl)C4c4cccc(Oc5ccccc5)c4)n3)cc2)ccc1Cl (centres undefined)
TGI (HL-60(TB) leukemia): 41.7 µM | TGI (HCC-2998 colon): > 100 µM | TGI (SK-MEL-28 melanoma): 79.8 µM | TGI (UACC-62 melanoma): 53.4 µM | TGI (MDA-N): 64.7 µM | TGI (A549 NSCLC): > 100 µM | TGI (NCI-H460 lung): > 100 µM | TGI (BT-549 breast): 81.5 µM | TGI (COLO 205 colon): 45.5 µM

C=CC(C)(C)C1(CC(OC)OC)C(=O)N(C)c2ccccc21 (centres undefined)
TGI (HL-60(TB) leukemia): > 25 µM | TGI (HCC-2998 colon): > 25 µM | TGI (SK-MEL-28 melanoma): > 25 µM | TGI (UACC-62 melanoma): > 25 µM | TGI (MDA-N): > 25 µM | TGI (A549 NSCLC): > 25 µM | TGI (NCI-H460 lung): > 25 µM | TGI (COLO 205 colon): > 25 µM

O=C1C(C(c2ccc([N+](=O)[O-])cc2)N2CCOCC2)=C(O)C(c2ccccc2)N1c1ccccc1 (centres undefined)
TGI (HL-60(TB) leukemia): > 10 µM | TGI (HCC-2998 colon): > 10 µM | TGI (SK-MEL-28 melanoma): > 10 µM | TGI (UACC-62 melanoma): > 10 µM | TGI (MDA-N): > 10 µM | TGI (A549 NSCLC): > 10 µM | TGI (NCI-H460 lung): > 10 µM | TGI (BT-549 breast): > 10 µM | TGI (COLO 205 colon): > 10 µM

CCCCC(=C=C(C)CO)C1CCCN1C(=O)OC(C)(C)C (centres undefined)
TGI (HL-60(TB) leukemia): 32.5 µM | TGI (HCC-2998 colon): 20.3 µM | TGI (SK-MEL-28 melanoma): 36 µM | TGI (UACC-62 melanoma): 26.9 µM | TGI (MDA-N): 34.2 µM | TGI (A549 NSCLC): 48.1 µM | TGI (NCI-H460 lung): 31.8 µM | TGI (BT-549 breast): 31.8 µM | TGI (COLO 205 colon): 32.9 µM

CCOC(=O)CCC(NC(=O)c1ccc(Nc2nc3cc(C(F)(F)F)ccc3nc2C(=O)OCC)cc1)C(=O)OCC (centres undefined)
TGI (HL-60(TB) leukemia): > 100 µM | TGI (HCC-2998 colon): > 100 µM | TGI (SK-MEL-28 melanoma): 27.9 µM | TGI (UACC-62 melanoma): 41.7 µM | TGI (MDA-N): 21.3 µM | TGI (A549 NSCLC): 27.4 µM | TGI (NCI-H460 lung): 33.9 µM | TGI (BT-549 breast): 29.8 µM | TGI (COLO 205 colon): > 100 µM

CC(C)(C)c1ccc(O)c(C(c2ccc([N+](=O)[O-])cc2)c2cc(C(C)(C)C)ccc2O)c1
TGI (HL-60(TB) leukemia): 3.95 µM | TGI (HCC-2998 colon): 3.44 µM | TGI (SK-MEL-28 melanoma): 3.72 µM | TGI (UACC-62 melanoma): 3.2 µM | TGI (A549 NSCLC): 3.77 µM | TGI (COLO 205 colon): 5.8 µM

COc1ccc(C(=O)c2c(-c3ccccc3NC(=O)C(F)(F)F)[nH]c3ccccc23)cc1
TGI (HL-60(TB) leukemia): 13.6 µM | TGI (HCC-2998 colon): 9.11 µM | TGI (SK-MEL-28 melanoma): 27.6 µM | TGI (UACC-62 melanoma): 25.8 µM | TGI (MDA-N): 29.3 µM | TGI (A549 NSCLC): 20.2 µM | TGI (NCI-H460 lung): 16.4 µM | TGI (BT-549 breast): 29 µM | TGI (COLO 205 colon): 16.1 µM

CC(C(=O)NCCNC(=O)CCC(=O)N(C)O)C(=O)NCCNC(=O)CCC(=O)N(C)O
TGI (HL-60(TB) leukemia): > 100 µM | TGI (HCC-2998 colon): > 100 µM | TGI (SK-MEL-28 melanoma): > 100 µM | TGI (UACC-62 melanoma): > 100 µM | TGI (MDA-N): > 100 µM | TGI (A549 NSCLC): > 100 µM | TGI (NCI-H460 lung): > 100 µM | TGI (COLO 205 colon): > 100 µM

C=CCOC(=O)c1c(C)n([O-])c2cc(Cl)c(Cl)cc2[n+]1=O
TGI (HL-60(TB) leukemia): 48.7 µM | TGI (HCC-2998 colon): 26.5 µM | TGI (SK-MEL-28 melanoma): 30.3 µM | TGI (UACC-62 melanoma): 41.3 µM | TGI (MDA-N): 45.6 µM | TGI (A549 NSCLC): 87.7 µM | TGI (NCI-H460 lung): 42.3 µM | TGI (BT-549 breast): 75.3 µM | TGI (COLO 205 colon): 32.6 µM

CC(C)(C)c1cc(C(=O)C2Cc3ccccc3C(=O)O2)cc(C(C)(C)C)c1O (centres undefined)
TGI (HL-60(TB) leukemia): 35 µM | TGI (SK-MEL-28 melanoma): 36.8 µM | TGI (UACC-62 melanoma): 26.3 µM | TGI (MDA-N): 23.9 µM | TGI (A549 NSCLC): 54.4 µM | TGI (NCI-H460 lung): 23.1 µM | TGI (BT-549 breast): 42.6 µM | TGI (COLO 205 colon): 33.1 µM

CCNC(=O)NNc1ncnc2c1c(-c1ccc(Cl)cc1)cn2-c1ccc(C)cc1
TGI (HL-60(TB) leukemia): 34.7 µM | TGI (HCC-2998 colon): 31.3 µM | TGI (SK-MEL-28 melanoma): 33.3 µM | TGI (UACC-62 melanoma): 33.3 µM | TGI (MDA-N): 36.8 µM | TGI (A549 NSCLC): 37.2 µM | TGI (NCI-H460 lung): 48.5 µM | TGI (COLO 205 colon): 29.9 µM

O=C1CCCCC/C1=C\c1cccc([N+](=O)[O-])c1
TGI (HL-60(TB) leukemia): 57 µM | TGI (HCC-2998 colon): 44 µM | TGI (SK-MEL-28 melanoma): > 100 µM | TGI (UACC-62 melanoma): 67.6 µM | TGI (MDA-N): > 100 µM | TGI (A549 NSCLC): > 100 µM | TGI (NCI-H460 lung): 67.9 µM | TGI (BT-549 breast): 72.8 µM | TGI (COLO 205 colon): > 100 µM

CCOC(=O)C1(C#N)C2(C#N)C(N)=NC(ON=C(C)C)(ON=C(C)C)C12C#N (centres undefined)
TGI (HL-60(TB) leukemia): > 100 µM | TGI (HCC-2998 colon): > 100 µM | TGI (SK-MEL-28 melanoma): > 100 µM | TGI (UACC-62 melanoma): > 100 µM | TGI (MDA-N): > 100 µM | TGI (A549 NSCLC): > 100 µM | TGI (NCI-H460 lung): > 100 µM | TGI (BT-549 breast): > 100 µM | TGI (COLO 205 colon): > 100 µM
